# Results: patent USRE37770E1, “Treatment of skin conditions by use of PPARα activators” (The Regents of the University of California, priority 1997, dated 2002)
# Columns and labels:
# [1] = system: involucrin mRNA; experiment: Involucrin mRNA in keratinocytes by Northern Blot; format: cell-based, Human
# [2] = system: involucrin protein; experiment: Involucrin protein level in keratinocytes by Western Blot; format: cell-based, Human
# Method: Measurements of the level of the involucrin protein itself were performed in the culture medium by Western Blot. Various incubations were performed, in media containing clofibrate at concentrations ranging from 0 (vehicle only) to 400 μM and calcium ion at both 0.03 mM and 1.2 mM. The results are shown in FIG. 9a for tests with calcium ion at 0.03 mM, and in FIG. 9b for tests with calcium ion at 1.2 mM. In these figures, the protein contents are expressed as percents of the respective measurements taken from media incubated for the same period of time but in the absence of clofibrate.
# The procedures of Example 8 were followed, and measurements were taken on the involucrin protein levels from cells incubated at various concentrations of farnesol and juvenile hormone III ranging from 0 (vehicle only) to 15 μM, in media containing 0.03 mM and 1.2 mM calcium ion, for 24 hours. The results are shown in FIG. 10 for farnesol and FIG. 11 for juvenile hormone III, in 0.03 mM Ca^++.
# Protein concentration was assessed by protein electrophoresis and Western blotting. Cells were lysed is 2% SDS and the lysate sonicated. Protein determinations were made by use of a Bicinchoninic add protein assay (Pierce Chemical Company, Rockford, Ill. USA). Following protein determination, equal amounts at protein (50 μg) were separated by electrophoresis an 7.5% polyacrylamide gels and electroblotted onto polyvinylidene […] membranes (0.2-μ, obtained from Bio-Rad Laboratories Hercules, Calif., USA). Involucrin protein was detected by incubation over-night at 4° C. C. with a polyclonal rabbit anti-human involucrin antibody (1:1000 dilution). The involucrin-specific bands on the autoradiograms were quantitated by densitometry by densitometry. Transglutaminase protein expression was measured in a similar mmaner, using stacking, sample and running buffers containing 4 M urea, and the gels following electrophoresis were washed in 4 M urea, 25 mM TRIS-HCl, pH 7.4, 7.5 mM NaCl, 0.1 mM dithiothreitol (DTT), and 2 mM ethylenediamine tetraacetic acid for 90 minutes prior to electoblotting, allowing the transglutaminase to be detected by antibody. Specific bands on the autoradiograms were quantified by densitometry.
# [3] = system: transglutaminase mRNA; experiment: Transglutaminase mRNA in keratinocytes by Northern Blot; format: cell-based, Human
# Method: (§1) Human keratinocyte cells were incubated in culture containing calcium at a concentration of 0.03 mM Ca^++ (a level that is too low to induce differentiation). Also included in the culture medium were clofibrate at 400 μM or ETYA at 10 μM and 20 μM, while separate cell cultures were maintained as controls with neither clofibrate nor ETYA. The production of mRNA for both involucrin and transglutaminase was measured at intervals over a 48-hour time period (0, 6, 12, 24, and 48 hours) by Northern Blot analysis. In each case, the lighter bars represent the control cells and the darker bars the cells incubated in the clofibrate-containing medium. The degree of mRNA generated is expressed as a percent of the control at zero hours.
# (§2) Human epidermis was isolated from newborn foreskins and keratinocytes were plated in serum-free keratinocyte growth medium (“KGM”; Clonetics, San Diego, Calif. USA), using conventional techniques. Cells were treated with either the test compounds in vehicle or vehicle alone (<0.1% ethanol) for 24 or 48 hours. The test compounds were obtained from Sigma Chemical Co. (St. Louis. Mo. USA) and were stored as 15 mM stock solutions at −20° C. Mevalonate was solubilized in sterile water.
# (§3) Total RNA was isolated by using TRIZOL (Sigma Chemical Co.), following the manufacturer's protocol. Ethanol-precipitate RNA pellets were suspended in sterile, diethylpyrocarbonate (DEPC)-treated water, and RNA was quantified by absorbance at 260 nm using the 260/280 nm ratio as an index of purity. RNA (15 μg per sample) was size fractionated through a 1% agarose gel containing 2.2 M formaldehyde. RNA integrity was visualized following acridine orange staining of the gel following electrophoresis. The RNA was transfered to a nylon membrane that was subsequently baked at 80° C. for 2 hours. Blots were hybridized with the appropriate ^32p-labeled probe overnight at 65° C. Washes were then performed in a solution containing 0.1% SSC and 0.1% sodium dedecyl sulfate (SDS) for 20 minutes at room temperature, followed by a 20-minute wash at 65° C. Autoradiography was performed at −70° C. Blots were probed with β-actin to confirm equal loading. Appropriate bands were quantified by densitometry.
# (§4) Northern blot analyses were performed on keratinocytes maintained in low calcium (0.03 mM) and incubated for 24 hours in the presence of vehicle alone (<0.1% ethanol) or vehicle containing 25-hydroxycholesterol (10 μM), 22(R)-hydroxycholesterol (10 μM) cholesterol (10 μM), or mevalonate (500 μM) (individually). The mRNA levels of involucrin (“INV”) and transglutaminase (“TG'ase”) are shown in the bar graph of FIG. 14a, the INV indicated by clear bars and the TG'ase by shaded bars, both with error limits shown.
# [4] = system: full-thickness flank skin from the fetal rats; experiment: Transepidermal water loss (TEWL) of fetal rat skin explants in organ culture (barrier function); format: cell-based, Sprague-Dawley rats
# Method: Timed pregnant Sprague-Dawley rats (plug date=day 0) were obtained from Simonsen (Gilroy, Calif., USA) and fetuses were delivered prematurely on day 17. Transepidermal water loss (TEWL) was measured in excised full-thickness flank skin from the fetal rats after various times in culture. The skin explants were placed dermis-side down onto collagen membrane inserts (3μ pore size) in medium M-199 (serum-free), and submerged, and the lateral edges and dermal surface were sealed with petrolatum, such that water loss occurred only through the epidermal surface. Explant samples were weighed hourly, at ambient temperature (24±3° C.) and humidity (40±5%), over 6 hours using a Cahn balance (sensitivity 0.001 mg). TEWL levels are reported as milligrams of water lost per square millimeter of epidermal surface per hour. Fatty acids and clofibrate (p-chlorophenoxyisobutyric acid) were added to the medium bound to 0.5% (weight/volume) bovine serum albumin (BSA). Isoprenoids and oxysterols were added in ethanol (≦0.1%) and juvenile hormone III was added as a dimethylsulfoxide (DMSO) solution (≦0.1%). Control explants were incubated in the presence of the appropriate vehicle (≦0.1% DMSO or ethanol, and/or ≦0.5% BSA). Skin explants from gestational day 17 rats were incubated in the presence of either various activators or vehicle, and transepidermal water loss was measured after two days. The activators and the concentrations at which they were used were as follows: […]
# [5] = system: involucrin mRNA; experiment: Involucrin mRNA in keratinocytes by Northern Blot; format: cell-based, Human; remark: listed apart in the source
# Method: as §1, §2, §3, §4
# [6] = system: Normal human keratinocytes; experiment: Cornified envelope formation (35S incorporation) in keratinocytes; format: cell-based; settings: 48 hours; for Cornified Envelope Formation (% of Control): control = 0.03 mM Ca++ vehicle, mean ± SEM; for increase in cornified envelope (CE) formation: 10 μM
# [7] = system: transglutaminase mRNA; experiment: Transglutaminase mRNA in keratinocytes by Northern Blot; format: cell-based, Human; remark: listed apart in the source
# [8] = 1.2 mM Ca++, 400 μM, all time points relative to the controls
# [9] = 24 hours, 0 to 400 μM, in either 0.03 mM or 1.2 mM Ca++
# [10] = 10 μM in the presence of mevalonate (10 μM), 24 hours
# [11] = 10 μM alone, 24 hours (Example 17)
# [12] = low calcium (0.03 mM), 24 hours, 10 μM
compound,measurement,setting,value
"CCOC(=O)C(C)(C)Oc1ccc(Cl)cc1 [clofibrate, 2-(4-chlorophenoxy)-2-methylpropanoic acid ethyl ester]",involucrin mRNA level,[1]; [8],increased mRNA levels
same,involucrin protein content,"[2]; 0 to 400 μM, calcium ion at both 0.03 mM and 1.2 mM",substantial increases in the protein content
same,transglutaminase mRNA level,"[3]; 0.03 mM Ca++, 400 μM, 0-48 hours, increase beginning at twelve hours",significantly increased levels
same,dose dependency of transglutaminase mRNA level,[3]; [9],increase with increasing dosages
same,EC50,"[4]; Rattus norvegicus, dose response, FIGS. 4a-4c, read-out: concentration of half-maximal effect on barrier development (TEWL)",~250 µM
same,concentration of maximal effect on barrier development (TEWL),"[4]; dose response, FIGS. 4a-4c",approximately 500 μM
same,involucrin mRNA level,"[5]; 0.03 mM Ca++, 400 μM, 0-48 hours, increase beginning at six hours",significantly increased levels
same,dose dependency of involucrin mRNA level,[5]; [9],increase with increasing dosages
same,Cornified Envelope Formation (% of Control),"[6]; Calcium 0.03 mM, Clofibrate 50 μM",121.4% ± 15.7 % of Control
same,Cornified Envelope Formation (% of Control),"[6]; Calcium 0.03 mM, Clofibrate 200 μM",321.3% ± 30.4 % of Control
same,Cornified Envelope Formation (% of Control),"[6]; Calcium 0.03 mM, Clofibrate 400 μM",386.8% ± 28.7 % of Control
same,Cornified Envelope Formation (% of Control),"[6]; Calcium 1.2 mM, Clofibrate 50 μM",458.9% ± 39.8 % of Control
same,Cornified Envelope Formation (% of Control),"[6]; Calcium 1.2 mM, Clofibrate 200 μM",529.3% ± 17.4 % of Control
same,Cornified Envelope Formation (% of Control),"[6]; Calcium 1.2 mM, Clofibrate 400 μM",581.9% ± 28.7 % of Control
same,transglutaminase mRNA level,[7]; [8],increased mRNA levels
C[C@H](CCCC(C)(C)O)[C@H]1CC[C@H]2[C@@H]3CC=C4C[C@@H](O)CC[C@]4(C)[C@H]3CC[C@]12C [25-hydroxycholesterol],INV mRNA level,[1]; [10],two-fold increase
same,increase in INV protein,"[2]; high calcium (1.2 mM), 15 μM",3.2 fold
same,INV protein level relative to the control,"[2]; low calcium (0.03 mM), 24 hours",approximately 1.7 fold
same,TG'ase mRNA level,[3]; [11],two-fold increase
same,transglutaminase (TG'ase) mRNA level compared to the vehicle alone,[3]; [12],approximate twofold increase
same,effect on TEWL / barrier function,"[4]; 50 μM, two days","neither mevalonate at 200 μM, 25-hydroxy cholesterol at 50 μM), squalene at 50 μM, geranylgeraniol at 50 μM, cis-farnesol at 50 μM, nor nerolidol at 100 μM significantly affected barrier function"
same,INV mRNA level,[5]; [11],two-fold increase
same,involucrin (INV) mRNA level compared to the vehicle alone,[5]; [12],approximate twofold increase
same,increase in cornified envelope (CE) formation,[6]; high calcium (1.2 mM),1.75 fold
same,increase in cornified envelope (CE) formation,[6]; low calcium (0.03 mM),1.6 fold
same,TG'ase mRNA level,[7]; [10],two-fold increase
